US20070048215A1, “Chemical compound and assay” (priority 2003, published 2007)

Key:
[1] = target: T1, membranes from hERG-transfected HEK cells (hERG channel) (Homo sapiens, UniProt Q12809); assay: Binding of the radioligand to membranes from hERG-transfected HEK cells (Kd, Bmax); conditions: mean±SEM, n=3
T1 construct: expressed in transfected cells; host or cells: HEK (human embryonic kidney) cells, membrane preparation
Method: The batch of radiolabel used in these studies has a specific activity of 2941.5 GBq/mmol (79.5 Ci/mmol) and a concentration of 20 μM. The stock radiolabel is diluted 2000-fold to 10 nM and 20 μL added per well to a final assay volume of 200 μL to give a final radioligand concentration of 1 nM.

[2] = test system: cardiac rapidly activating delayed rectifier K^+ current; conditions: source of data: Chadwick 1993; G.Pig; cited from earlier work
[3] = target: T2, hERG-transfected HEK membranes (hERG channel) (Homo sapiens, UniProt Q12809); conditions: published data of Finlayson et al.; cited from earlier work
T2 sequence (Q12809 whole entry): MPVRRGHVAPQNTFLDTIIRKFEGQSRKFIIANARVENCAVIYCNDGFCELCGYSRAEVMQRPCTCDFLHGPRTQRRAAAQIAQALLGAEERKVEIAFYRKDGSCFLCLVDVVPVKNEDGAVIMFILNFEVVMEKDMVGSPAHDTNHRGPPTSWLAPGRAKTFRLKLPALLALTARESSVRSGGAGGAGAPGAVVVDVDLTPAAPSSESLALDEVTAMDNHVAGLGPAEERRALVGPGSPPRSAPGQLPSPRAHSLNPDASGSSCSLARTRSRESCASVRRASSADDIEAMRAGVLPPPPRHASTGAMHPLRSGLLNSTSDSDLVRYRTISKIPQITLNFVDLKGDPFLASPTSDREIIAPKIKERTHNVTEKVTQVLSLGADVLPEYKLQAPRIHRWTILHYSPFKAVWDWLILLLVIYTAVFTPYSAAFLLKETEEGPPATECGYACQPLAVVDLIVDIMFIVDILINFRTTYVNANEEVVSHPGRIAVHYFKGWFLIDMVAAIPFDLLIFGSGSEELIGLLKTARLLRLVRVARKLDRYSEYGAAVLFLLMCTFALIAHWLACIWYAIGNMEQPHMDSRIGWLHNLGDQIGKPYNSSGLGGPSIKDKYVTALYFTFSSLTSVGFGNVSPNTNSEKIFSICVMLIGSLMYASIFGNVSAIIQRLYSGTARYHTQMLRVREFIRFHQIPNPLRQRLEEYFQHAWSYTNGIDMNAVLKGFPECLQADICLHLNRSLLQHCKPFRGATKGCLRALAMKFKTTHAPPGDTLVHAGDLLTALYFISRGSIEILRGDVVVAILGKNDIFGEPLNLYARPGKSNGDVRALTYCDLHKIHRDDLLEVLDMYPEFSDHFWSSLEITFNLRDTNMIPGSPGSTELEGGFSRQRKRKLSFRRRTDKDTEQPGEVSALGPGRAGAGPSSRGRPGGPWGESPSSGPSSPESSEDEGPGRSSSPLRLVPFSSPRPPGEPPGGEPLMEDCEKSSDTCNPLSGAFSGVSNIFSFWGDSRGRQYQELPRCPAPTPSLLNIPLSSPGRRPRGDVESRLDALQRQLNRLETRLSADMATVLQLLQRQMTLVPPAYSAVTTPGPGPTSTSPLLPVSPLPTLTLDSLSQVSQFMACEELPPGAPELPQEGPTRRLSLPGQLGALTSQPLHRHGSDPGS

[4] = target: T2, hERG-transfected HEK membranes (hERG channel)
Method: Protocol for HERG Binding Assay
(§1) 96-well polypropylene plates (Costar C3600)
GF/B Plate Coating Solution
0.3% (v/v) Polyethylenimine
(§2) GF/B filter plates are pre-soaked in coating solution for a minimum of 20 minutes before harvesting.
(§3) Membranes for use in the assay are prepared as follows:
(§4) The final pellet is prepared in serum-free medium and the packed cell volume (pcv) measured.
(§5) The cells are allowed to swell for a couple of minutes on ice then lysed using a Polytron tissue homogeniser set to 22,000 rpm. The cell suspension is held on ice and the Polytron is allowed to build up to speed, then turned off and allowed to cool for 30 seconds before repeating. Normally 3 bursts should be sufficient to completely lyse the cells. A sample is checked microscopically to ensure complete lysis and the process repeated if necessary.
(§6) The lysed membrane solution is carefully overlaid over the 41% cushion. Any debris that may be stuck to the sides is washed out of the Polytron tube with buffer. The ultra centrifuge tube is topped up with cold buffer to completely fill the tube (this prevents the tube from collapsing during centrifugation). Centrifugation is carried out at 28,000 rpm for 1 hour @ 4° C. using a SW-28 swing-out rotor with a brake to 800 rpm.
(§7) Membranes are seen as a white band at sucrose/buffer interphase. The top layer of the buffer is discarded and then all the membrane band is harvested with as little sucrose as possible and added to a fresh centrifuge tube. This is diluted and mixed well with at least 3 volumes of ice cold buffer containing protease inhibitor. Centrifugation is carried out at 23,000 rpm at 4° C. for 20 minutes with a break to zero.
(§8) The supernatant is discarded and the pellet resuspended in the assay buffer+protease inhibitors on ice at 1×10^8 cell equivalents/ml. This preparation is then aliquotted and frozen to −80° C. or lower. […]
(§9) 20 μL of 10 nM 3,7-Bis[2-(4-nitro[3,5-^3H]phenyl)ethyl]-3,7-diazabicyclo[3.3.1]nonane is added to a dry filter plate to determine the total radioactivity added to assay wells.

[5] = target: T2, hERG-transfected HEK membranes (hERG channel); assay: biochemical
Method: Protocol for HERG Binding Assay
as §1
GF/B Plate Coating Solution
0.3% (v/v) Polyethylenimine
as §2, §3, §4, §5, §6, §7, §8, §9

T1 sequence (Q12809 whole entry): as above

**Q.** With `O=[N+]([O-])c1ccc(CCN2CC3CC(C2)CN(CCc2ccc([N+](=O)[O-])cc2)C3)cc1` [3,7-Bis[2-(4-nitro[3,5-^3H]phenyl)ethyl]-3,7-diazabicyclo[3.3.1]nonane] as the compound, how does the Kd [1] read?
**A.** The Kd was 0.91 ± 0.01 nM.

**Q.** For `[3H]c1cc(CCN2CC3CC(C2)CN(CCc2cc([3H])c([N+](=O)[O-])c([3H])c2)C3)cc([3H])c1[N+](=O)[O-]` [3,7-Bis[2-(4-nitro[3,5-^3H]phenyl)ethyl]-3,7-diazabicyclo[3.3.1]nonane], which Bmax [1] is on record?
**A.** Its Bmax is 23.1±0.4 pmol/mg protein.

**Q.** With `CC(C)NC[C@@H](O)c1ccc(NS(C)(=O)=O)cc1` [d-Sotalol] as the compound, how does the “Electrophysiology pIC50” value [2] read?
**A.** The value was 4.1.

**Q.** What about the “pIC50, [^3H]-Dofetlide competition binding” value [3] of the same compound?
**A.** The value was 3.9.

**Q.** What about the “pIC50, 3,7-Bis[2-(4-nitro[3,5-^3H]phenyl)ethyl]-3,7-diazabicyclo[3.3.1]nonane competition binding” value [4] of the same compound?
**A.** Its value is 4.6.

**Q.** Which IC50 [5] does the source give for `O=[N+]([O-])c1ccc(CCN2CC3CC(C2)CN(CCc2ccc([N+](=O)[O-])cc2)C3)cc1` [3,7-Bis[2-(4-nitrophenyl)ethyl]-3,7-diazabicyclo[3.3.1]nonane] here?
**A.** Its IC50 is 3.16 nM.
